Here are results for 22 compounds from ChEMBL document CHEMBL3046484, “Fumigant toxicity of lemon eucalyptus oil constituents to acaricide-susceptible and acaricide-resistant Tetranychus urticae” (2011).

Common to all, as to format: functional
For test [1], the system named is Tetranychus urticae. The test can be described thus: Insecticidal activity against acaricide-susceptible female Tetranychus urticae KST (two-spotted spider mite) in kidney bean assessed as mortality in 3 cm disks measured after 24 hr exposure by vapour-phase mortality bioassay.
In test [2] the test system is Tetranychus urticae. The test can be described thus: Insecticidal activity against pyridaben-resistant female Tetranychus urticae PRT-53 (two-spotted spider mite) in kidney bean assessed as mortality in 3 cm disks measured after 24 hr exposure by vapour-phase mortality bioassay.
Test [3] relates to Tetranychus urticae. The test can be described thus: Insecticidal activity against fenpropathrin-resistant female Tetranychus urticae FRT-53 (two-spotted spider mite) in kidney bean assessed as mortality in 3 cm disks measured after 24 hr exposure by vapour-phase mortality bioassay.
The test system of test [4] is Tetranychus urticae. The test is described as follows: Insecticidal activity against chlorfenapyr-resistant female Tetranychus urticae CRT-53 (two-spotted spider mite) in kidney bean assessed as mortality in 3 cm disks measured after 24 hr exposure by vapour-phase mortality bioassay.
Test [5] relates to Tetranychus urticae. The test is described as follows: Insecticidal activity against abamectin-resistant female Tetranychus urticae ART-53 (two-spotted spider mite) in kidney bean assessed as mortality in 3 cm disks measured after 24 hr exposure by vapour-phase mortality bioassay.

`CC(C)=CCC[C@@H](C)CC=O` [CITRONELLAL]: the LC50 was 33.9 microg/cm3 with Tetranychus urticae [1]; 34.9 microg/cm3 with Tetranychus urticae [2]; 34 microg/cm3 in the test with Tetranychus urticae [3]; 34.8 microg/cm3 in the test on Tetranychus urticae [4]; 34.9 microg/cm3 with Tetranychus urticae [5].

In the case of `C=C(C)[C@H]1CC=C(C)CC1` [D-LIMONENE], the LC50 in the test with Tetranychus urticae [1] was found to be 246.7 microg/cm3; with Tetranychus urticae [2] it was 288.5 microg/cm3; in the test with Tetranychus urticae [3], 284.3 microg/cm3; in the test with Tetranychus urticae [4] it was 333.3 microg/cm3; in the test with Tetranychus urticae [5], 277.6 microg/cm3.

With `CC1=CC=C(C(C)C)CC1`, the LC50 in the test with Tetranychus urticae [1] was found to be 260 microg/cm3; with Tetranychus urticae [2], 253.2 microg/cm3; with Tetranychus urticae [3], 263.3 microg/cm3; in the test on Tetranychus urticae [4] it was 293.9 microg/cm3; with Tetranychus urticae [5], 277.5 microg/cm3.

In the case of `C=CC(C)(O)CCC=C(C)C` (centres undefined) [LINALOOL], the LC50 in the test with Tetranychus urticae [1] is on record as 54.6 microg/cm3; with Tetranychus urticae [2] it was 55 microg/cm3; in the test on Tetranychus urticae [3], 57.3 microg/cm3; with Tetranychus urticae [4], 58.9 microg/cm3; with Tetranychus urticae [5], 62.4 microg/cm3.

For `Cc1ccc(C(C)C)cc1` [P-CYMENE], the LC50 was 231.4 microg/cm3 in the test with Tetranychus urticae [1]; 243.3 microg/cm3 with Tetranychus urticae [2]; 238.9 microg/cm3 in the test with Tetranychus urticae [3]; 213.5 microg/cm3 with Tetranychus urticae [4]; 265.2 microg/cm3 in the test with Tetranychus urticae [5].

As for `C=C(C)[C@@H]1CC[C@@H](C)C[C@H]1O` [ISOPULEGOL], the LC50 in the test with Tetranychus urticae [1] was 30.3 microg/cm3; with Tetranychus urticae [2], 27.7 microg/cm3; with Tetranychus urticae [3], 30.1 microg/cm3; in the test on Tetranychus urticae [4], 30.7 microg/cm3; in the test with Tetranychus urticae [5], 29 microg/cm3.

Take `C=CC(=C)CCC=C(C)C` [MYRCENE]: the LC50 in the test with Tetranychus urticae [1] worked out at 349.8 microg/cm3; with Tetranychus urticae [2], 377.4 microg/cm3; in the test on Tetranychus urticae [3], 369.3 microg/cm3; in the test on Tetranychus urticae [4] it was 370.6 microg/cm3; in the test on Tetranychus urticae [5], 384.2 microg/cm3.

Turning to `CC12CCC(CC1)C(C)(C)O2` [EUCALYPTOL], the LC50 in the test with Tetranychus urticae [1] came out at 275 microg/cm3; with Tetranychus urticae [2], 263.7 microg/cm3; in the test with Tetranychus urticae [3], 249 microg/cm3; in the test on Tetranychus urticae [4], 298.4 microg/cm3; in the test on Tetranychus urticae [5] it was 256.3 microg/cm3.

Regarding `CC(C)=CCCC(C)CCO` (centres undefined) [CITRONELLOL], the LC50 in the test with Tetranychus urticae [1] was 21.7 microg/cm3; in the test with Tetranychus urticae [2], 25.9 microg/cm3; with Tetranychus urticae [3], 21.4 microg/cm3; in the test on Tetranychus urticae [4], 26.1 microg/cm3; in the test with Tetranychus urticae [5] it was 26 microg/cm3.

On to `C=C1CC[C@@H]2[C@@H]([C@@H]3[C@H](C)CC[C@@H]13)C2(C)C` [(+)-AROMADENDRENE], for which the LC50 with Tetranychus urticae [1] is over 500 microg/cm3.

In the case of `CC(=O)OC/C=C(\C)CCC=C(C)C` [GERANYL ACETATE], the LC50 was determined as 24.5 microg/cm3 with Tetranychus urticae [1]; 24.5 microg/cm3 in the test with Tetranychus urticae [2]; 26.7 microg/cm3 in the test with Tetranychus urticae [3]; 25.3 microg/cm3 in the test with Tetranychus urticae [4]; 24 microg/cm3 in the test on Tetranychus urticae [5].

For `CC1CCC(C(C)C)C(O)C1` (centres undefined) [MENTHOL], the LC50 in the test on Tetranychus urticae [1] worked out at 12.9 microg/cm3; with Tetranychus urticae [2], 12.9 microg/cm3; in the test with Tetranychus urticae [3], 12.8 microg/cm3; with Tetranychus urticae [4], 13 microg/cm3; with Tetranychus urticae [5] it was 13.7 microg/cm3.

Consider `C=C1CC[C@H]2O[C@]2(C)CC[C@@H]2[C@@H]1CC2(C)C` [(-)-CARYOPHYLLENE OXIDE], for which the LC50 with Tetranychus urticae [1] is recorded as over 500 microg/cm3.

For `CC1(C)C2CCC1(C)C(O)C2` (centres undefined) [BORNEOL], the LC50 in the test on Tetranychus urticae [1] is on record as over 500 microg/cm3.

`CC(=O)OCCC(C)CCC=C(C)C` (centres undefined) [CITRONELLYL ACETATE]: the LC50 worked out at 16.8 microg/cm3 with Tetranychus urticae [1]; 17.4 microg/cm3 in the test with Tetranychus urticae [2]; 16.5 microg/cm3 with Tetranychus urticae [3]; 16.7 microg/cm3 with Tetranychus urticae [4]; 12.8 microg/cm3 in the test with Tetranychus urticae [5].

`CC1=CC[C@@](O)(C(C)C)CC1`: the LC50 turned out to be 36.9 microg/cm3 with Tetranychus urticae [1]; 43.7 microg/cm3 in the test with Tetranychus urticae [2]; 40.8 microg/cm3 in the test on Tetranychus urticae [3]; 36.7 microg/cm3 with Tetranychus urticae [4]; 38.7 microg/cm3 in the test on Tetranychus urticae [5].

`C=C/C(C)=C/CC=C(C)C` [OCIMENE]: the LC50 in the test with Tetranychus urticae [1] amounted to 255 microg/cm3; with Tetranychus urticae [2], 260.2 microg/cm3; in the test with Tetranychus urticae [3], 289.6 microg/cm3; in the test with Tetranychus urticae [4], 277.2 microg/cm3; in the test with Tetranychus urticae [5], 281.3 microg/cm3.

Regarding `C=C1CC/C=C(\C)CC[C@@H]2[C@@H]1CC2(C)C` [BETA-CARYOPHYLLENE], the LC50 in the test with Tetranychus urticae [1] stood at 47.6 microg/cm3; in the test on Tetranychus urticae [2] it was 44.7 microg/cm3; in the test on Tetranychus urticae [3], 47.7 microg/cm3; in the test on Tetranychus urticae [4], 49.1 microg/cm3; with Tetranychus urticae [5], 53.4 microg/cm3.

For the compound `C=C[C@]1(C)CC[C@@H](C(C)(C)O)O1` [(E)-LINALOOL OXIDE], in the test on Tetranychus urticae [1], the LC50 is given as over 500 microg/cm3.

In the case of `CC1=CC[C@H](C(C)C)C=C1`, the LC50 in the test with Tetranychus urticae [1] was determined as 299.7 microg/cm3; in the test with Tetranychus urticae [2], 340.7 microg/cm3; in the test with Tetranychus urticae [3], 360.6 microg/cm3; in the test on Tetranychus urticae [4] it was 380.1 microg/cm3; in the test on Tetranychus urticae [5], 354.7 microg/cm3.

`C=CCc1ccc(O)c(OC)c1` [EUGENOL]: the LC50 was 24.6 microg/cm3 with Tetranychus urticae [1]; 31.7 microg/cm3 in the test with Tetranychus urticae [2]; 28.6 microg/cm3 in the test with Tetranychus urticae [3]; 25.9 microg/cm3 in the test on Tetranychus urticae [4]; 27.8 microg/cm3 with Tetranychus urticae [5].

As to `CC(C)=CCC/C(C)=C/CO` [GERANIOL], the LC50 in the test with Tetranychus urticae [1] stood at 32.1 microg/cm3; in the test on Tetranychus urticae [2] it was 33.2 microg/cm3; with Tetranychus urticae [3] it was 26.8 microg/cm3; in the test on Tetranychus urticae [4] it was 32 microg/cm3; with Tetranychus urticae [5], 33.3 microg/cm3.
